# Test results taken from patent US8481539B2, “Alkynylaryl compounds and salts thereof, pharmaceutical compositions comprising same, methods of preparing same and uses of same” (Bayer Intellectual Property GmbH, priority 2007, dated 2013).
# Tests used:
# Type in all cases: biochemical
# human VEGFR2 = target: T1, human VEGFR2 (Homo sapiens, UniProt P35968); experiment: VEGFR2 HTRF Assay (assay 5); details: pIC50 class; 10 μM ATP; read-out: Enzymatic VEGFR2 activity (assay 5)
# T1 construct: GST-tagged recombinant kinase domain of the human VEGFR2; GST; host or cells: SF-9 cells
# T1 sequence (P35968 834-1162 limits assumed): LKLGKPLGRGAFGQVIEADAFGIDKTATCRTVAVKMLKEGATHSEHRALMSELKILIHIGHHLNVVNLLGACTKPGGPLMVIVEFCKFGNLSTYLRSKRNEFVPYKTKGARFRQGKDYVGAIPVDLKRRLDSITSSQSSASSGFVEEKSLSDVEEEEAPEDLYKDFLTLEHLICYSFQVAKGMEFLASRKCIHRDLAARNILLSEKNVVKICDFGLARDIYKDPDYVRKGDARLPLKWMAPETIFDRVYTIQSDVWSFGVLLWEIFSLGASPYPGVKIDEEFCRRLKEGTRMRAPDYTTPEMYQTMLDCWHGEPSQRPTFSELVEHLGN
# From the text: Assay 5: VEGFR2 HTRF Assay
# VEGFR2 inhibitory activity of compounds of the present invention was quantified employing the VEGFR2 HTRF assay as described in the following paragraphs.
# GST-tagged recombinant kinase domain of the human VEGFR2 expressed in SF-9 cells was used as kinase. As substrate for the kinase reaction the biotinylated peptide biotin-Ahx-DFGLARDMYDKEYYSVG (C-terminus in acid form) was used which can be purchased e.g. form the company Biosynthan GmbH (Berlin-Buch, Germany). VEGFR2 was incubated for 45 min at 22° C. in the presence of different concentrations of test compounds in 5 μl assay buffer [50 mM Hepes/NaOH pH 7.0, 25 mM MgCl2, 5 mM MnCl2, 1.0 mM dithiothreitol, 0.1 mM sodium ortho-vanadate, 10 μM adenosine-tri-phosphate (ATP), 0.5 μM substrate, 0.001% (v/v) Nonidet-P40 (Sigma), 1% (v/v) dimethylsulfoxide]. The concentration of VEGFR2 was adjusted depending of the activity of the enzyme lot and was chosen appropriate to have the assay in the linear range. The reaction was stopped by the addition of 5 μl of a solution of HTRF detection reagents (0.1 μM streptavidine-XLent and 2 nM PT66-Eu-Chelate, an europium-chelate labelled anti-phospho-tyrosine antibody from Perkin Elmer) in an aqueous EDTA-solution (125 mM EDTA, 0.2% (w/v) bovine serum albumin in 50 mM HEPES/NaOH pH 7.0).
# (§1) The resulting mixture was incubated for 1 h at 22° C. to allow the binding of the biotinylated phosphorylated peptide to the streptavidine-XLent and the PT66-Eu-Chelate. Subsequently the amount of phosphorylated substrate was evaluated by measurement of the resonance energy transfer from the PT66-Eu-Chelate to the streptavidine-XLent. Therefore, the fluorescence emissions at 620 nm and 665 nm after excitation at 350 nm was measured in a HTRF reader, e.g. a Rubystar (BMG Labtechnologies, Offenburg, Germany) or a Viewlux (Perkin-Elmer). The ratio of the emissions at 665 nm and at […] was taken as the measure for the amount of phosphorylated substrate. The data were normalized (enzyme reaction without inhibitor=0% inhibition, all other assay components but no enzyme=100% inhibition) and IC50 values were calculated by a 4 parameter fit using an inhouse software.
# [1] = target: T2, human insuline receptor (Ins-R) (Homo sapiens, UniProt P06213); experiment: Insulin Receptor HTRF Assay (assay 4); details: pIC50 class; 10 μM ATP; read-out: Enzymatic InsR activity (assay 4)
# T2 construct: GST-tagged recombinant kinase domain of the human insuline receptor; GST; purchased ProQinase, Freiburg, Germany; host or cells: SF-9 cells
# T2 sequence (P06213 1023-1298 limits assumed): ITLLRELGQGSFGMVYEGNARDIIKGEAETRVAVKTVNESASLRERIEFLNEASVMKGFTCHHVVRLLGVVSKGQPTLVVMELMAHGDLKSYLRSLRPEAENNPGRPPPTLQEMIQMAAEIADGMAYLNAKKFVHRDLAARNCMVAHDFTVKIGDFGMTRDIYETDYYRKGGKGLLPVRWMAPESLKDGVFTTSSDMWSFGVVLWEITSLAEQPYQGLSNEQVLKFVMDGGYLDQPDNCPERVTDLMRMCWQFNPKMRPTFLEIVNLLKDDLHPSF
# Procedure: Assay 4: Insulin Receptor HTRF Assay
# Inhibitory activity of compounds against the kinase activity of the insulin receptor was quantified employing the Ins-R HTRF assay as described in the following paragraphs.
# GST-tagged recombinant kinase domain of the human insuline receptor (Ins-R, purchase from ProQinase, Freiburg, Germany) expressed in SF-9 cells was used as kinase. As substrate for the kinase reaction biotinylated poly-(Glu, Tyr) (Cis biointernational, France) was used.
# Ins-R was incubated for 20 min at 22° C. in the presence of different concentrations of test compounds in 5 μl assay buffer [50 mM Hepes/NaOH pH 7, 15 mM MnCl2, 1 mM dithiothreitol, 0.1 μM sodium ortho-vanadate, 0.015% (v/v) PEG20000, 10 μM adenosine-tri-phosphate (ATP), 0.3 μg/ml substrate, 1% (v/v) dimethylsulfoxide]. The concentration of Ins-R was adjusted depending of the activity of the enzyme lot and was chosen appropriate to have the assay in the linear range, typical concentrations were in the range of 10 pg/μl. The reaction was stopped by the addition of 5 μl of a solution of HTRF detection reagents (0.1 μM streptavidine-XLent and 1 nM PT66-Eu-Chelate, an europium-chelate labelled anti-phospho-tyrosine antibody from Perkin Elmer) in an aqueous EDTA-solution (80 mM EDTA, 0.2% (w/v) bovine serum albumin in 50 mM HEPES/NaOH pH 7.0).
# as §1, with “incubated” for “incubated for”, “normalised” for “normalized”
# Tie-2 = target: T3, Tie-2 (Homo sapiens, UniProt Q02763); experiment: Tie-2-Kinase HTRF-Assay (assay 2); details: pIC50 class; 10 μM ATP; read-out: Enzymatic Tie 2 activity (assay 2)
# T3 construct: fusion protein of GST and the intracellular domains of Tie-2; GST; made in house; host or cells: insect cells (Hi-5)
# T3 sequence (Q02763 770-1124 limits assumed, species assumed): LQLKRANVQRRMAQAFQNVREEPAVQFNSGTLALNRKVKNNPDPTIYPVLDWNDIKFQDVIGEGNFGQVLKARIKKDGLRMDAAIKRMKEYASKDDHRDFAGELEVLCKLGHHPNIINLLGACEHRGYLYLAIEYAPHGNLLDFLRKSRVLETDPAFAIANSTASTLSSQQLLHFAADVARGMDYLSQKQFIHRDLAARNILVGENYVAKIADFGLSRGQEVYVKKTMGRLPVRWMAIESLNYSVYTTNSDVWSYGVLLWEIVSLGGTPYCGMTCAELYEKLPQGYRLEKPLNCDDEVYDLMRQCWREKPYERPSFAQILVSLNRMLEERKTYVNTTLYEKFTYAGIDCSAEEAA
# From the text: Tie2-inhibitory activity of compounds of the present invention was quantified employing two Tie2 HTRF assay as described in the following paragraphs.
# A recombinant fusion protein of GST and the intracellular domains of Tie-2, expressed in insect cells (Hi-5) and purified by Glutathion-Sepharose affinity chromatography was used as kinase. Alternatively, commercially available GST-Tie2-fusion protein (Upstate Biotechnology, Dundee, Scotland) can be used As substrate for the kinase reaction the biotinylated peptide biotin-Ahx-EPKDDAYPLYSDFG (C-terminus in amid form) was used which can be purchased e.g. from the company Biosynthan GmbH (Berlin-Buch, Germany). Detection of phosphorylated product is achieved specifically by a trimeric detection complex consisting of the phosphorylated substrate, streptavidin-XLent (SA-XLent) which binds to biotin, and Europium Cryptate-labeled anti-phosphotyrosine antibody PT66 which binds to phosphorylated tyrosine.
# Tie-2 (3.5 ng/measurement point) was incubated for 60 min at 22° C. in the presence of 10 μM adenosine-tri-phosphate (ATP) and 1 μM substrate peptide (biotin-Ahx-EPKDDAYPLYSDFG-NH2) with different concentrations of test compounds (0 μM and concentrations in the range 0.001-20 μM) in 5 μl assay buffer [50 mM Hepes/NaOH pH 7, 10 mM MgCl2, 0.5 mM MnCl2, 1.0 mM dithiothreitol, 0.01% NP40, protease inhibitor mixture (“Complete w/o EDTA” from Roche, 1 tablet per 2.5 ml), 1% (v/v) dimethylsulfoxide]. The reaction was stopped by the addition of 5 μl of an aqueous buffer (25 mM Hepes/NaOH pH 7.5, 0.28% (w/v) bovine serum albumin) containing EDTA (90 mM) and the HTRF (Homogeneous Time Resolved Fluorescence) detection reagents streptavidine-XLent (0.2 μM, from Cis Biointemational, Marcoule, France) and PT66-Eu-Chelate (0.3 ng/μl; a europium-chelate labelled anti-phospho-tyrosine antibody from Perkin Elmer).
# as §1, with “incubated” for “incubated for”, “substrate peptide” for “substrate”, “substrate peptide.” for “substrate.”, “normalised” for “normalized”, “inhibitor=0 (%” for “inhibitor=0%”
smiles,measurement,setting,value
"Cn1ncc2c(C#Cc3cc(NC(=O)Nc4cccc(C(F)(F)F)c4)ccc3F)cncc21 [Example 2.6, 1-[4-Fluoro-3-(1-methyl-1H-pyrazolo[3,4-c]pyridin-4-ylethynyl)-phenyl]-3-(3-trifluoromethyl-phenyl)-urea]",IC50,human VEGFR2,< 1000 nM
same,IC50,[1],≥ 10000 nM
same,IC50,Tie-2,< 1000 nM
